{"source": "patent US9428536B2", "about": "“Immunostimulatory G, U-containing oligoribonucleotides” (Zoetis Belgium SA, priority 2002, dated 2016)", "key": {"human PBMC": {"test_system": "human PBMC", "test": "Human PBMC IL-12 p40 secretion, ELISA", "type": "cell-based", "settings": "for IL-12 p40 response of human PBMC (in words): Example 1, FIG. 1, 16 hours, RNA 50 μg/ml with and without DOTAP, R-848 2 μg/ml, LPS 1 μg/ml, Pam3Cys 5 μg/ml, poly IC 50 μg/ml; for effect of DOTAP on the amount of IL-12 p40 secreted: Example 4, FIG. 5, presence versus absence of DOTAP, 16 hour incubation", "protocol": "Human peripheral blood mononuclear cells (PBMCs) were isolated from healthy donors, plated at 3×10^5 cells/well, stimulated in vitro with various test and control immunostimulatory agents for 16 hours, and then analyzed by enzyme-linked immunosorbent assay (ELISA) using matched antibody pairs from BD-Pharmingen for secreted cytokines IL-12 p40 and TNF-α, performed according to the manufacturer's protocol. Also included were certain negative controls, including medium alone and DOTAP (10 μg/200 μl culture well; “Liposomes”) alone. The control immunostimulatory agents included the imidazoquinolone R-848 (2 μg/ml), lipopolysaccharide (LPS; 1 μg/ml), Pam3Cys (5 μg/ml), poly IC (50 μg/ml), and CpG DNA (50 μg/ml). These are reported ligands for TLR7, TLR4, TLR2, TLR3, and TLR9, respectively. Test immunostimulatory agents included the following RNA molecules, each at 50 μg/ml, with and without DOTAP (10 μg total “with Liposomes” and “without Liposomes”, respectively): GUGUUUAC alone; GUAGGCAC alone; GUGUUUAC in combination with GUAGGCAC; GUAGGA; GAAGGCAC; CUAGGCAC; CUCGGCAC; and CCCCCCCC. These RNA oligonucleotides each contained a phosphorothioate linkage between the penultimate and 3′ terminal nucleoside.\nThe experiments described in the preceding example were repeated with varied concentrations of RNA oligonucleotides in order to assess the dose-response behavior of human PBMCs to G,U-containing RNA oligonucleotides of the invention. A total of 10, 3 or 1 μg RNA was added to 10 μg DOTAP and then added to the 200 μl culture wells. After 16 hours IL-12 p40 and TNF-α ELISAs were performed as described in Example 1. […]\nRNA oligomers GUGUGUGU, GUGUGUG, GUGUGU, GUGUG, GUGU, GUG, and GU, with and without DOTAP, were added over a range of concentrations to overnight cultures of human PBMC. Culture supernatants were harvested, and human TNF-α, IL-12 p40, and IFN-α were measured by ELISA using matched antibody pairs from BD-Pharmingen according to the manufacturer's protocol. […]"}, "[1]": {"test_system": "wild type murine macrophages", "test": "Wild type murine macrophages in the presence of IFN-γ, IL-12 p40 ELISA", "type": "cell-based, mouse", "settings": "FIG. 6 Panel A, 12 hours, RNA with DOTAP", "protocol": "The following murine cells were isolated and incubated with various RNAs and other known TLR ligands in order to assess species-, cell type-, and signaling pathway-specificity: wild type macrophages in the presence of IFN-γ; MyD88-deficient macrophages in the presence of IFN-γ; J774 (mouse macrophage cell line); and RAW 264.7 (mouse macrophage cell line, e.g., ATCC TIB-71). Murine bone macrophages were generated from wild type or MyD88-deficient C57BL/6 mice by culturing bone marrow cells with 50 ng/ml M-CSF for 5 days. Cells were seeded at 25,000 cells/well and treated with 20 ng/ml IFN-γ for 16 hours. The murine macrophage cell lines RAW and J774 were seeded at 10,000 cells/well.\nThe following test and control agents were examined: R-848 (2 μg/ml), ODN 1668 (CpG DNA; 5′-[…]-3′; SEQ ID NO:7); LPS (1 μg/ml); poly IC (50 μg/ml); Pam3Cys (5 μg/ml); Ionomycin/TPA; the following RNA molecules, each with (“+Lipo”) and without DOTAP (10 μg/200 μl culture well): GUGUUUAC alone (RNA1); GUAGGCAC alone (RNA2); GUGUUUAC in combination with GUAGGCAC (RNA1/2); […] (RNA6; SEQ ID NO:8); […] (RNA9; SEQ ID NO:9); and the following DNA molecules, corresponding to RNA1, RNA2, and RNA1/2: GTGTTTAC alone (DNA1); GTAGGCAC alone (DNA2); and GTGTTTAC in combination with GTAGGCAC (DNA1/2). These RNA and DNA oligonucleotides each contained a phosphorothioate linkage between the penultimate and 3′ terminal nucleoside. RNA6 and RNA9 each contained in addition a phosphorothioate linkage between the penultimate and 5′ terminal nucleoside. RNA6 corresponds to a ribosomal RNA stem loop derived from Listeria monocytogenes. RNA9 corresponds to a stem loop derived from human immunodeficiency virus (HIV, an RNA retrovirus). The cells were cultured for 12 hours and supernatants were harvested. Murine IL-12 p40, IL-6, and TNF-α were measured by ELISA using matched antibody pairs from BD-Pharmingen according to the manufacturer's protocol."}}, "data": [{"compound": "CCCCCCCCCCCCCCCC(=O)N[C@@H](CSC[C@@H](COC(=O)CCCCCCCCCCCCCCC)OC(=O)CCCCCCCCCCCCCCC)C(=O)O", "note": "[Pam3Cys, reference compound]", "values": [{"measurement": "IL-12 p40 response of human PBMC (in words)", "setting": "human PBMC", "value": "responsive"}, {"measurement": "effect of DOTAP on the amount of IL-12 p40 secreted", "setting": "human PBMC", "value": "about the same immunostimultory effect"}, {"measurement": "IL-12 p40 secretion by wild type murine macrophages", "setting": "[1]", "value": "significant amounts"}]}, {"compound": "lipopolysaccharide [LPS, reference compound]", "values": [{"measurement": "IL-12 p40 response of human PBMC (in words)", "setting": "human PBMC", "value": "responsive"}, {"measurement": "effect of DOTAP on the amount of IL-12 p40 secreted", "setting": "human PBMC", "value": "reduced immunostimultory effect"}, {"measurement": "IL-12 p40 secretion by wild type murine macrophages", "setting": "[1]", "value": "significant amounts"}]}, {"compound": "poly IC [reference compound]", "values": [{"measurement": "IL-12 p40 response of human PBMC (in words)", "setting": "human PBMC", "value": "responsive"}, {"measurement": "effect of DOTAP on the amount of IL-12 p40 secreted", "setting": "human PBMC", "value": "reduced immunostimultory effect"}, {"measurement": "IL-12 p40 secretion by wild type murine macrophages", "setting": "[1]", "value": "significant amounts"}]}]}
